Measurements: patent US11414379B2, “SPAK kinase inhibitors as neuroprotective agents” (United States Government as represented by the Department …, priority 2018, dated 2022)

Legend:
Assay in all cases: Kinase panel (Dundee profiling)
Assay type in all cases: biochemical
Conditions in all cases: read-out: % residual kinase activity
ABL = ABL (Homo sapiens, UniProt P00519)
Experimental: (§1) The kinase selectivity of ZT-1a was further assessed using standard radioisotopic enzymatic assays against a panel of 140 recombinant kinases (Dundee profiling, Table 2) (Bain et al. (2007) The Biochemical journal 408, 297-315). ZT-1a at a concentration of 10 μM inhibited only MAPKAP-K2 activity 85±7% compared to DMSO control, representing high kinase selectivity.
(§2) Referring to Table 2, ZT-1a was tested at 10 and 1 μM against a panel of 140 recombinant kinases in an enzymatic activity-based assay performed by the International Centre for Kinase Profiling in the MRC Protein Phosphorylation and Ubiquitylation Unit. Values represent % residual kinase activity (mean+/−SEM, n=3). Kinases labelled with an asterick* are inhibited ≥50% by ZT-1a.

Aurora B = Aurora B (Homo sapiens, UniProt Q96GD4)
Experimental: as §1, §2

BRSK2 = BRSK2 (Homo sapiens, UniProt Q8IWQ3)
Experimental: as §1, §2

CHK2 = CHK2 (Homo sapiens, UniProt O96017)
Experimental: as §1, §2

CK1γ2 = CK1γ2 (Homo sapiens, UniProt P78368)
Experimental: as §1, §2

DAPK1 = DAPK1 (Homo sapiens, UniProt P53355)
Experimental: as §1, §2

DDR2 = DDR2 (Homo sapiens, UniProt Q16832)
Experimental: as §1, §2

EPH-B1 = EPH-B1 (Homo sapiens, UniProt P54762)
Experimental: as §1, §2

EPH-B3 = EPH-B3 (Homo sapiens, UniProt P54753)
Experimental: as §1, §2

ERK5 = ERK5 (Homo sapiens, UniProt Q13164)
Experimental: as §1, §2

GCK = GCK (Homo sapiens, UniProt Q12851)
Experimental: as §1, §2

JNK2 = JNK2 (Homo sapiens, UniProt P45984)
Experimental: as §1, §2

MAPKAP-K3 = MAPKAP-K3 (Homo sapiens, UniProt Q16644)
Experimental: as §1, §2

MARK1 = MARK1 (Homo sapiens, UniProt Q9P0L2)
Experimental: as §1, §2

MARK2 = MARK2 (Homo sapiens, UniProt Q7KZI7)
Experimental: as §1, §2

MARK4 = MARK4 (Homo sapiens, UniProt Q96L34)
Experimental: as §1, §2

MKK6 = MKK6 (Homo sapiens, UniProt P52564)
Experimental: as §1, §2

MNK2 = MNK2 (Homo sapiens, UniProt Q9HBH9)
Experimental: as §1, §2

MPSK1 = MPSK1 (Homo sapiens, UniProt O75716)
Experimental: as §1, §2

MST4 = MST4 (Homo sapiens, UniProt Q9P289)
Experimental: as §1, §2

OSR1 = OSR1 (Homo sapiens, UniProt O95747)
Experimental: as §1, §2

PKA = PKA (Homo sapiens, UniProt P17612)
Experimental: as §1, §2

PKCa = PKCa (Homo sapiens, UniProt P17252)
Experimental: as §1, §2

PLK1 = PLK1 (Homo sapiens, UniProt P53350)
Experimental: as §1, §2

PRK2 = PRK2 (Homo sapiens, UniProt Q16513)
Experimental: as §1, §2

ROCK2 = ROCK2 (Rattus norvegicus, UniProt Q62868)
Experimental: as §1, §2

S6K1 = S6K1 (Homo sapiens, UniProt P23443)
Experimental: as §1, §2

SGK1 = SGK1 (Homo sapiens, UniProt O00141)
Experimental: as §1, §2

Src = Src (Homo sapiens, UniProt P12931)
Experimental: as §1, §2

TTK = TTK (Homo sapiens, UniProt P33981)
Experimental: as §1, §2

WNK1 = WNK1 (Homo sapiens, UniProt Q9H4A3)
Experimental: as §1, §2

p38d MAPK = p38d MAPK (Homo sapiens, UniProt O15264)
Experimental: as §1, §2

Chain of BRSK2 (Q8IWQ3 whole entry, species assumed): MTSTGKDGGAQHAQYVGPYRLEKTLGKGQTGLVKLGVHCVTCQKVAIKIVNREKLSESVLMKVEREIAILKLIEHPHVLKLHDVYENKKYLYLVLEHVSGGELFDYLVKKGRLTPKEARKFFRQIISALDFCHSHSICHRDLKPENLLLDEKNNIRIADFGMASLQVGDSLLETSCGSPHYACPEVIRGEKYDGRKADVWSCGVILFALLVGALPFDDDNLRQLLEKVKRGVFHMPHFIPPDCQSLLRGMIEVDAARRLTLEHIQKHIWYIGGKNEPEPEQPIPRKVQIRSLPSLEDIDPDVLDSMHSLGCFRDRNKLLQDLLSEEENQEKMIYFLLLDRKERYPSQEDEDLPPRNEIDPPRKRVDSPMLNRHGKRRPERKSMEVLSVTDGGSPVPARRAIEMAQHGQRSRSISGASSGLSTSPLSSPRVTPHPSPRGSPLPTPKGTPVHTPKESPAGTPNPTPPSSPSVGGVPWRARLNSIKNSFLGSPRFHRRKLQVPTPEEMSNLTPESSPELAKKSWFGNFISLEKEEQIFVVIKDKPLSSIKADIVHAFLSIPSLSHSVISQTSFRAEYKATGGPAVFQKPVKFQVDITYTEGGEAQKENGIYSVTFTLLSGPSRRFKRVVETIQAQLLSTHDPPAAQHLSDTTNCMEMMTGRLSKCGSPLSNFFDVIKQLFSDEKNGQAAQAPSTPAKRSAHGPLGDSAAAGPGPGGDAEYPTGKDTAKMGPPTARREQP
Chain of GCK (Q12851 whole entry): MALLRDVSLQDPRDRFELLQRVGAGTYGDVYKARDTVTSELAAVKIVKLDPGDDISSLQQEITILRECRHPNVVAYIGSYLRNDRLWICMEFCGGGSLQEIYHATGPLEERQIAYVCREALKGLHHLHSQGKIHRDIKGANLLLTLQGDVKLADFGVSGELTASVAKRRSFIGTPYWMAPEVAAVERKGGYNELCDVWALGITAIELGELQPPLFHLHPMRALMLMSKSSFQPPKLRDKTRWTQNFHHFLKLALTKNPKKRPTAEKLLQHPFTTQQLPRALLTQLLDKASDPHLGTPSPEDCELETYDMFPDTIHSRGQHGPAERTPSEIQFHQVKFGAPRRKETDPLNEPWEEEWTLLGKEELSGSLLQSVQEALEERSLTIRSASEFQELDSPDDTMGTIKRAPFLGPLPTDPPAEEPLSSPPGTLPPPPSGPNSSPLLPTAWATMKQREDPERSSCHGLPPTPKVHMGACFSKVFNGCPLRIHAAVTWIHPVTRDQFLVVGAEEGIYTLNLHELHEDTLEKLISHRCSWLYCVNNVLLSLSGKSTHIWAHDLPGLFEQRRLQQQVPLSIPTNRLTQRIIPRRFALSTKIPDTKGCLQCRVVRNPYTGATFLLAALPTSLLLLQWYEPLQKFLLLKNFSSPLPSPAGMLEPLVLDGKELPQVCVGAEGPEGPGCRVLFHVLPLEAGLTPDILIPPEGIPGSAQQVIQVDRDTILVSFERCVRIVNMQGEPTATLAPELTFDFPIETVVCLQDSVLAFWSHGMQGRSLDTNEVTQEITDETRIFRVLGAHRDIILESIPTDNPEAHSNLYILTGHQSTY
Chain of EPH-B3 (P54753 34-998, species assumed): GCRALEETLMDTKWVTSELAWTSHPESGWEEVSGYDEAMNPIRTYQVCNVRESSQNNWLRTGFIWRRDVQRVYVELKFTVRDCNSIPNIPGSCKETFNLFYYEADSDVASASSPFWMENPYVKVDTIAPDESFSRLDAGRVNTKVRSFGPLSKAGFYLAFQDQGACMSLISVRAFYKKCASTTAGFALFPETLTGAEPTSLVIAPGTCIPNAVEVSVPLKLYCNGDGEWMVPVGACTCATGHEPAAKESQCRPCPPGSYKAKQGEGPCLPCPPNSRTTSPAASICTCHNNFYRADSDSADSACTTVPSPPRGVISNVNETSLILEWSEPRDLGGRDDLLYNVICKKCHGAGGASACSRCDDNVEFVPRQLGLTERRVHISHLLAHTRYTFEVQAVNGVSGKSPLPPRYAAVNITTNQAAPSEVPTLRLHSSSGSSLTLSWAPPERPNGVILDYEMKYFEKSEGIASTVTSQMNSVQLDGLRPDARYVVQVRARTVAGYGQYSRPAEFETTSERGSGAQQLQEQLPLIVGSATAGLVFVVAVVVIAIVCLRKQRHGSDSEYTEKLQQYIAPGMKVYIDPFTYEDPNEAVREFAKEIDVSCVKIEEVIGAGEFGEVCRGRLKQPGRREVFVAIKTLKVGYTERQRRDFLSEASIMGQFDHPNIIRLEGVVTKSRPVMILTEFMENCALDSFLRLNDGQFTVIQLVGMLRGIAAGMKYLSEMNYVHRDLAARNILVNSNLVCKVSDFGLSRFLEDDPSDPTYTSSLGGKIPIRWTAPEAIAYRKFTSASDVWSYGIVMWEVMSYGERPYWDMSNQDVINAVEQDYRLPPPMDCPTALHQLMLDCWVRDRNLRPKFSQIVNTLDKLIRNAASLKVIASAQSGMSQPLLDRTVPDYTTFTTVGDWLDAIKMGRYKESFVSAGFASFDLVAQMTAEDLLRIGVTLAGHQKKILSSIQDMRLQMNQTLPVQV
Chain of PLK1 (P53350 whole entry, species assumed): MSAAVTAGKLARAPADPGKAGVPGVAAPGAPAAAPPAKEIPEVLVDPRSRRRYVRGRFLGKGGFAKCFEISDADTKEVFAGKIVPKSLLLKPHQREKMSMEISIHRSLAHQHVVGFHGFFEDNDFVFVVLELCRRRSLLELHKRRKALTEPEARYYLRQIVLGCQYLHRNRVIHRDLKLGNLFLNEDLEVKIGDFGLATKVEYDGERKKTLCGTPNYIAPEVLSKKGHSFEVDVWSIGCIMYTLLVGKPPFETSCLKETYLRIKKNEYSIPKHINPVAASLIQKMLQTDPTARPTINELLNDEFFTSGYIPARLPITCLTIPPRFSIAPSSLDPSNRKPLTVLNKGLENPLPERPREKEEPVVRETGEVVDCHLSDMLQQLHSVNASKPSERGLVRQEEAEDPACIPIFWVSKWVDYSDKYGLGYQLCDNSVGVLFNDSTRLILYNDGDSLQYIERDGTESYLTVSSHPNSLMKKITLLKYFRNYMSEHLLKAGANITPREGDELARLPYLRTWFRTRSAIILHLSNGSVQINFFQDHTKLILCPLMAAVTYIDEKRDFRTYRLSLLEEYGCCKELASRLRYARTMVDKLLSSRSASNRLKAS
Chain of ERK5 (Q13164 whole entry, species assumed): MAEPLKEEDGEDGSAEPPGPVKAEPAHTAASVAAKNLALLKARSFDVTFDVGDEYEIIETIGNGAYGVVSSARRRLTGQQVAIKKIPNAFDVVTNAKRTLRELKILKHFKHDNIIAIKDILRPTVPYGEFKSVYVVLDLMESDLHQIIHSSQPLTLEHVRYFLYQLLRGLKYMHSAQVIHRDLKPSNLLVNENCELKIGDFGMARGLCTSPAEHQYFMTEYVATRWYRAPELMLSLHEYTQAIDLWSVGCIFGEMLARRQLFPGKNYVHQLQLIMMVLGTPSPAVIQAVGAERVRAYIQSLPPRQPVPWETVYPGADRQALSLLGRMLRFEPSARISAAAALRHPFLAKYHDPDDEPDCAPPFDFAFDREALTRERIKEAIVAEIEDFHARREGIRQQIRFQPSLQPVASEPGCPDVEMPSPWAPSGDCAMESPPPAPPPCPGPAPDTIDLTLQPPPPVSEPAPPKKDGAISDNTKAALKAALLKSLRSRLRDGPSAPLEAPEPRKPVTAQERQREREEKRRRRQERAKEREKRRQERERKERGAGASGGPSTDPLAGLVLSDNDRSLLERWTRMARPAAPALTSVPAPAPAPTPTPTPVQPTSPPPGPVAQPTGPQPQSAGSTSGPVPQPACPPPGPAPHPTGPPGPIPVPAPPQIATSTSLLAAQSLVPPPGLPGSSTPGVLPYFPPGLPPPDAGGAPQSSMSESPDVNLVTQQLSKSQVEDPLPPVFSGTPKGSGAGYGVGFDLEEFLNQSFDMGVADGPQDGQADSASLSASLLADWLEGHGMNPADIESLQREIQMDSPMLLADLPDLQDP
Chain of CK1γ2 (P78368 whole entry): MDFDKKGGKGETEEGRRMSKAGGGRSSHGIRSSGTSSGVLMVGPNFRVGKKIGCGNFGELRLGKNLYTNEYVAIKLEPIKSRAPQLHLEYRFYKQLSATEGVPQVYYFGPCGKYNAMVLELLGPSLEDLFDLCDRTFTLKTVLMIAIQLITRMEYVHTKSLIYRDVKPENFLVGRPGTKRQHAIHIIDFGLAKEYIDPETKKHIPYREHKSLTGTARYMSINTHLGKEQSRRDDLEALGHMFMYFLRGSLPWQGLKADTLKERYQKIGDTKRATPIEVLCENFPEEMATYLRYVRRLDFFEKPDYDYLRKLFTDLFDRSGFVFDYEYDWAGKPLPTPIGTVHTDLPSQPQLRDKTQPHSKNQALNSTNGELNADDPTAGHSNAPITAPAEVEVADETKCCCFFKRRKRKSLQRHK
Chain of S6K1 (P23443 whole entry, species assumed): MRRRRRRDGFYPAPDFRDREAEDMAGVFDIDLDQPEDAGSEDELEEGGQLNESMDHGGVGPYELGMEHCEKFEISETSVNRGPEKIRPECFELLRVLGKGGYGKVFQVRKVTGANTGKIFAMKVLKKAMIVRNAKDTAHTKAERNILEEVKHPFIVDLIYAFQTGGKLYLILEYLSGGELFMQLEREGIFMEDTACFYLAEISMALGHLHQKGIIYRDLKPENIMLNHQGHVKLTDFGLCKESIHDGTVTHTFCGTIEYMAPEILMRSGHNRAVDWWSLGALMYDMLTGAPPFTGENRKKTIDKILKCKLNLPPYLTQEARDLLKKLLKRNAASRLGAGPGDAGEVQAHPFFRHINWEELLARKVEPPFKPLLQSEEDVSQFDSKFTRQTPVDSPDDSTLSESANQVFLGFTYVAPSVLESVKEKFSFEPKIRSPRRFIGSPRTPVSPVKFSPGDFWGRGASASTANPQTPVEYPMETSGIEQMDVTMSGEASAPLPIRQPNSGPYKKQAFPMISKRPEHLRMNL

Cc1cc(C(C#N)c2ccc(Cl)cc2)c(Cl)cc1NC(=O)c1cc(Cl)ccc1O (stereo not shown) [ZT-1a, 5-chloro-N-(5-chloro-4-((4-chlorophenyl)(cyano)methyl)-2-methylphenyl)-2-hydroxy-benzamide]
remaining activity at 1 µM (ABL; 1 μM): 85 ± 4% | remaining activity at 10 µM (ABL; 10 μM): 68 ± 16% | remaining activity at 1 µM (Aurora B; 1 μM): 119 ± 6% | remaining activity at 10 µM (Aurora B; 10 μM): 92 ± 15% | remaining activity at 1 µM (BRSK2; 1 μM): 115 ± 14% | remaining activity at 10 µM (BRSK2; 10 μM): 104% | remaining activity at 1 µM (CHK2; 1 μM): 106 ± 1% | remaining activity at 10 µM (CHK2; 10 μM): 68 ± 6% | remaining activity at 1 µM (CK1γ2; 1 μM): 112 ± 12% | remaining activity at 10 µM (CK1γ2; 10 μM): 124 ± 23% | remaining activity at 1 µM (DAPK1; 1 μM): 131 ± 8% | remaining activity at 10 µM (DAPK1; 10 μM): 159 ± 11% | remaining activity at 1 µM (DDR2; 1 μM): 111 ± 20% | remaining activity at 10 µM (DDR2; 10 μM): 99 ± 8% | remaining activity at 1 µM (EPH-B1; 1 μM): 77 ± 15% | remaining activity at 10 µM (EPH-B1; 10 μM): 80 ± 19% | remaining activity at 1 µM (EPH-B3; 1 μM): 88 ± 6% | remaining activity at 10 µM (EPH-B3; 10 μM): 84 ± 6% | remaining activity at 1 µM (ERK5; 1 μM): 120 ± 9% | remaining activity at 10 µM (ERK5; 10 μM): 114 ± 5% | remaining activity at 1 µM (GCK; 1 μM): 112 ± 4% | remaining activity at 10 µM (GCK; 10 μM): 97 ± 3% | remaining activity at 1 µM (JNK2; 1 μM): 102 ± 2% | remaining activity at 10 µM (JNK2; 10 μM): 147 ± 51% | remaining activity at 1 µM (MAPKAP-K3; 1 μM): 96 ± 26% | remaining activity at 10 µM (MAPKAP-K3; 10 μM): 72 ± 8% | remaining activity at 1 µM (MARK1; 1 μM): 104 ± 16% | remaining activity at 10 µM (MARK1; 10 μM): 91 ± 5% | remaining activity at 1 µM (MARK2; 1 μM): 103 ± 8% | remaining activity at 10 µM (MARK2; 10 μM): 89 ± 15% | remaining activity at 1 µM (MARK4; 1 μM): 68 ± 8% | remaining activity at 10 µM (MARK4; 10 μM): 59 ± 9% | remaining activity at 1 µM (MKK6; 1 μM): 102 ± 12% | remaining activity at 10 µM (MKK6; 10 μM): 82 ± 16% | remaining activity at 1 µM (MNK2; 1 μM): 100 ± 7% | remaining activity at 10 µM (MNK2; 10 μM): 105 ± 3% | remaining activity at 1 µM (MPSK1; 1 μM): 110 ± 6% | remaining activity at 10 µM (MPSK1; 10 μM): 105 ± 2% | remaining activity at 1 µM (MST4; 1 μM): 63 ± 10% | remaining activity at 10 µM (MST4; 10 μM): 63% | remaining activity at 1 µM (OSR1; 1 μM): 106 ± 9% | remaining activity at 10 µM (OSR1; 10 μM): 98 ± 3% | remaining activity at 1 µM (PKA; 1 μM): 80 ± 11% | remaining activity at 10 µM (PKA; 10 μM): 50 ± 2% | remaining activity at 1 µM (PKCa; 1 μM): 97 ± 4% | remaining activity at 10 µM (PKCa; 10 μM): 83 ± 2% | remaining activity at 1 µM (PLK1; 1 μM): 72 ± 1% | remaining activity at 10 µM (PLK1; 10 μM): 93 ± 21% | remaining activity at 1 µM (PRK2; 1 μM): 118 ± 4% | remaining activity at 10 µM (PRK2; 10 μM): 120 ± 7% | remaining activity at 1 µM (ROCK2; 1 μM): 109 ± 6% | remaining activity at 10 µM (ROCK2; 10 μM): 101 ± 10% | remaining activity at 1 µM (S6K1; 1 μM): 119 ± 10% | remaining activity at 10 µM (S6K1; 10 μM): 81 ± 2% | remaining activity at 1 µM (SGK1; 1 μM): 73 ± 14% | remaining activity at 10 µM (SGK1; 10 μM): 58 ± 5% | remaining activity at 1 µM (Src; 1 μM): 107 ± 4% | remaining activity at 10 µM (Src; 10 μM): 84 ± 13% | remaining activity at 1 µM (TTK; 1 μM): 104 ± 2% | remaining activity at 10 µM (TTK; 10 μM): 91 ± 5% | remaining activity at 1 µM (WNK1; 1 μM): 125 ± 17% | remaining activity at 10 µM (WNK1; 10 μM): 122 ± 35% | remaining activity at 1 µM (p38d MAPK; 1 μM): 95 ± 1% | remaining activity at 10 µM (p38d MAPK; 10 μM): 112 ± 2%
